Data reported in patent US20070191336A1 (priority 2003, published 2007).
Where two headings read alike, the source gives them in different places. Blank lines part the entries; values can stand above or below the compound they belong to.

Assays:
[1] = tested on: LPS-induced TNF-alpha release from human peripheral blood mononuclear leukocytes; assay: Human peripheral blood mononuclear leukocyte cell assay (LPS-induced TNF-alpha release, ELISA); format: cell-based; conditions: 25 ng/mL LPS, 16 hours incubation, read-out: IC50 for inhibition of TNF-alpha release
Experimental: The quantity of LPS-induced tumor necrosis factor-alpha (TNF-alpha) cytokine release is measured by a commercially available Enzyme-Linked Immunosorbent Assay (ELISA) kit. Test compounds are evaluated for their ability to inhibit TNF-alpha release. […] Test compounds evaluated are illustrated in Table 4.

[2] = target: p38 MAP kinase (unphosphorylated p38-alpha kinase) (Homo sapiens, UniProt Q16539); assay: P38 MAP kinase binding assay (fluorescence competition with SKF 86002 probe); conditions: for Time-dependent: time-dependent if IC50 values decrease with the reaction time (more than two-fold in four hours)
Experimental: The reaction was initiated by addition of the enzyme. […] By comparison of rfu (relative fluorescence unit) values with that of a control (in the absence of an inhibitor), the percentage of inhibition at each concentration of the inhibitor was calculated. IC50 value for the inhibitor was calculated from the % inhibition values obtained at a range of concentrations of the inhibitor using Prism. When time-dependent inhibition was assessed, the plate was read at multiple reaction times such as 0.5, 1, 2, 3, 4 and 6 hours. The IC50 values were calculated at the each time point. An inhibition was assigned as time-dependent if the IC50 values decrease with the reaction time (more than two-fold in four hours).

[3] = target: T1, phospho p-38 alpha kinase (Homo sapiens, UniProt Q16539); assay: P-38 alpha kinase assay (spectrophotometric, pyruvate kinase/lactate dehydrogenase coupled); format: biochemical; conditions: for IC50: Table 2, rates from […] to 2 h time frame; for % Inhibition @ concentration: Table 3; for inhibition at 10 µM / % Inhibition @ concentration: at 10 uM
T1 construct: purchased Panvera

[4] = read-out: % Inhibition @ concentration, Table 3

T1 sequence (Q16539 whole entry): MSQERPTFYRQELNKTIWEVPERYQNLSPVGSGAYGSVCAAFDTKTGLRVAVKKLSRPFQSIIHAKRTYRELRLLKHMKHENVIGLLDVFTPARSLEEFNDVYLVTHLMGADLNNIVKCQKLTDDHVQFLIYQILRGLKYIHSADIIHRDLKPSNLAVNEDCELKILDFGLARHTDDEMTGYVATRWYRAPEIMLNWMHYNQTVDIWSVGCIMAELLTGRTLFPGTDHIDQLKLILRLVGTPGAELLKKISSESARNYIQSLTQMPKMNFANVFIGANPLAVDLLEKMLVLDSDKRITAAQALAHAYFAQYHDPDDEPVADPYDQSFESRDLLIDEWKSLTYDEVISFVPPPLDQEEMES
Sequence of p38 MAP kinase (unphosphorylated p38-alpha kinase) (Q16539 whole entry): as above

Compound: CC1(C(=O)O)CC2(C)CC(C)(C1)C(=O)N(Cc1cccc(-n3nc(C(C)(C)C)cc3NC(=O)Nc3cccc4ccccc34)c1)C2=O (stereo not shown) [Example 11]
- IC50 ([2]; read-out: IC50): 2150 nM
- Time-dependent [2]: No
- IC50 [3]: 953 nM

Compound: CC1(C(=O)O)CC2(C)CC(C)(C1)C(=O)N(Cc1cccc(-n3nc(C(C)(C)C)cc3NC(=O)Nc3ccc(Cl)cc3)c1)C2=O (stereo not shown) [Example 12]
- IC50 [2]: ~10000 nM
- Time-dependent [2]: No
- inhibition at 10 µM ([3]; read-out: % inhibition @ concentration, Table 2): 70%

Compound: CC(C)(C)c1cc(NC(=O)Nc2cccc3ccccc23)n(-c2cccc(CC(=O)N3CCOCC3)c2)n1 [Example 21, 1-{3-tert-butyl-1-[3-(2-morpholino-2-oxoethyl)phenyl]-1H-pyrazol-5-yl}-3-(naphthalene-1-yl)urea]
- IC50 [1]: 3400 nM
- IC50 [2]: 48 nM
- Time-dependent [2]: Yes
- IC50 [3]: 171 nM

Compound: CC(C)(C)c1cc(NC(=O)Nc2cccc3ccccc23)n(-c2ccc(CN)cc2)n1 [Example 45, 1-{3-tert-butyl-1-[4-(aminomethyl)phenyl]-1H-pyrazol-5-yl}-3-(naphthalen-1-yl)urea]
- IC50 ([2]; read-out: IC50): 1860 nM
- Time-dependent [2]: No
- IC50 [3]: 480 nM

Compound: O=C(O)CCc1cccc(-n2nc(C(F)(F)F)cc2NC(=O)Nc2ccc(Cl)cc2)c1 [Example 530, 3-(3-(5-(3-(4-chlorophenyl)ureido)-3-(trifluoromethyl)-1H-pyrazol-1-yl)phenyl)propanoic acid]
- inhibition at 10 µM [3, 4]: 83%

Compound: CCOC(=O)CCc1cccc(-n2nc(C)cc2NC(=O)Nc2ccc(Cl)cc2)c1 [Example 531, 3-(3-{5-[3-(4-chloro-phenyl)-ureido]-3-methyl-pyrazol-1-yl}-phenyl)-propionic acid ethyl ester]
- inhibition at 10 µM [3, 4]: 14%

Compound: CC(C)c1cc(NC(=O)Nc2ccc(Cl)cc2)n(-c2cccc(CCC(=O)O)c2)n1 [Example 532]
- % Inhibition @ concentration [3]: 66% @ 10

Compound: CC(C)c1cc(NC(=O)Nc2ccc(Cl)cc2)n(-c2cccc(CCC(=O)O)c2)n1 [Example 533, 3-(3-(5-(3-(4-chlorophenyl)ureido)-3-isopropyl-1H-pyrazol-1-yl)phenyl)propanoic acid]
- % Inhibition @ concentration [3]: 39% @ 10

The next lines start with the values.

- IC50 [1]: 6100 nM
Compound: CC(C)(C)c1cc(NC(=O)Nc2cccc3ccccc23)n(-c2cccc(CN3C(=O)CNS3(=O)=O)c2)n1 [Example 3, 1-(3-tert-butyl-1-{[3-(1,1,3-trioxo-[1,2,5]thiadiazolidin-2-yl)methyl]phenyl}-1H-pyrazol-5-yl)-3-(naphthalen-1-yl)urea]

- IC50 [1]: 6320 nM
Compound: CC1(C)C(=O)NN(Cc2cccc(-n3nc(C(C)(C)C)cc3NC(=O)Nc3cccc4ccccc34)c2)C1=O [Example 13, 1-(3-tert-butyl-1-{3-[(4,4-dimethyl-3,5-dioxopyrazolidin-1-yl)methyl]phenyl}-1H-pyrazol-5-yl)-3-(naphthalen-1-yl)urea]

- IC50 [1]: 2680 nM
Compound: CC(C)(C)c1cc(NC(=O)Nc2cccc3ccccc23)n(-c2cccc(CCC(=O)O)c2)n1 [Example 29]

- IC50 [1]: 4520 nM
Compound: CC(C)(C)c1cc(NC(=O)Nc2cccc3ccccc23)n(-c2ccc(CCC(=O)O)cc2)n1 [Example 31, 3-{4-[3-tert-butyl-5-(3-(naphthalene-1-yl)ureido]-1H-pyrazol-1-yl}phenyl)propanonic acid]

- IC50 [1]: 2340 nM
Compound: CC(C)(C)c1cc(NC(=O)Nc2ccc(Br)cc2)n(-c2ccc(CO)cc2)n1 [Example 60]

- IC50 [1]: 3490 nM
Compound: CCOC(=O)CCc1ccc(-n2nc(C(C)(C)C)cc2NC(=O)Nc2cccc3ccccc23)cc1 [Example 296, ethyl 3-(4-(3-tert-butyl-5-(3-(naphthalen-1-yl)ureido)-1H-pyrazol-1-yl)phenyl)propanoate]

- IC50 [1]: 4780 nM
Compound: CC(C)(C)c1cc(NC(=O)Nc2cccc3ccccc23)n(-c2cccc(CCN3CCOCC3)c2)n1 [Example 300]

- IC50 [3]: 437 nM
Compound: CC(C)(C)c1cc(NC(=O)Nc2ccc(Cl)cc2)n(-c2cccc(CO)c2)n1 [Example F]
